What was measured:
blackgrass [1] = assay: Test A preemergence; type: in vivo, Alopecurus myosuroides
Procedure, shortened: (§1)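 Seeds in loam–sand blend received a directed preemergence soil spray of compound in non-phytotoxic solvent with surfactant; postemergence plants (2–10 cm, one- to two-leaf stage) were sprayed with the same formulation. After 10 days in greenhouse, injury was rated visually versus untreated controls, 0 (no effect) to 100 (complete control).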

foxtail, giant [2] = assay: Test A preemergence; type: in vivo, Setaria faberi
Procedure, shortened: as §1

oat, wild [3] = assay: Test A postemergence; type: in vivo, Avena fatua; settings: postemergence, 10 days
Procedure, shortened: as §1

pigweed, palmer [4] = assay: Test A preemergence; type: in vivo, Amaranthus palmeri
Procedure, shortened: as §1

corn [5] = assay: Test A preemergence; type: in vivo, Zea mays
Procedure, shortened: as §1

barnyardgrass = assay: Test B flooded paddy test; type: in vivo, Echinochloa crus-galli; settings: 250 g ai/ha, Flood, 13 days, 0 to 100 scale (0 no effect, 100 complete control)
Procedure, shortened: (§2)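 Percent weed or crop control, judged by eye on a 0–100 scale 13 days post-treatment, reflects compound added to a 3 cm flood maintained over 2-leaf plants in the greenhouse. Missing entries are marked with a dash.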

horseweed = assay: Test A postemergence; type: in vivo, Erigeron canadensis; settings: postemergence, 10 days
Procedure, shortened: as §1

oat, wild [6] = assay: Test A preemergence; type: in vivo, Avena fatua
Procedure, shortened: as §1

rice = assay: Test B flooded paddy test; type: in vivo, Oryza sativa; settings: 250 g ai/ha, Flood, 13 days, 0 to 100 scale (0 no effect, 100 complete control)
Procedure, shortened: as §2

ducksalad = assay: Test B flooded paddy test; type: in vivo, Heteranthera limosa; settings: 250 g ai/ha, Flood, 13 days, 0 to 100 scale (0 no effect, 100 complete control)
Procedure, shortened: as §2

ragweed [7] = assay: Test A postemergence; type: in vivo, Ambrosia artemisiifolia; settings: postemergence, 10 days
Procedure, shortened: as §1

kochia [8] = assay: Test A preemergence; type: in vivo, Bassia scoparia
Procedure, shortened: as §1

wheat [9] = assay: Test A postemergence; type: in vivo, Triticum aestivum; settings: postemergence, 10 days
Procedure, shortened: as §1

goosegrass [10] = assay: Test A postemergence; type: in vivo, Eleusine indica; settings: postemergence, 10 days
Procedure, shortened: as §1

ryegrass, Italian [11] = assay: Test A preemergence; type: in vivo, Lolium multiflorum
Procedure, shortened: as §1

kochia [12] = assay: Test A postemergence; type: in vivo, Bassia scoparia; settings: postemergence, 10 days
Procedure, shortened: as §1

galium = assay: Test A postemergence; type: in vivo, Galium aparine; settings: postemergence, 10 days
Procedure, shortened: as §1

ryegrass, Italian [13] = assay: Test A postemergence; type: in vivo, Lolium multiflorum; settings: postemergence, 10 days
Procedure, shortened: as §1

goosegrass [14] = assay: Test A preemergence; type: in vivo, Eleusine indica
Procedure, shortened: as §1

foxtail, giant [15] = assay: Test A postemergence; type: in vivo, Setaria faberi; settings: postemergence, 10 days
Procedure, shortened: as §1

ragweed [16] = assay: Test A preemergence; type: in vivo, Ambrosia artemisiifolia
Procedure, shortened: as §1

sedge, umbrella = assay: Test B flooded paddy test; type: in vivo, Cyperus difformis; settings: 250 g ai/ha, Flood, 13 days, 0 to 100 scale (0 no effect, 100 complete control)
Procedure, shortened: as §2

corn [17] = assay: Test A postemergence; type: in vivo, Zea mays; settings: postemergence, 10 days
Procedure, shortened: as §1

blackgrass [18] = assay: Test A postemergence; type: in vivo, Alopecurus myosuroides; settings: postemergence, 10 days
Procedure, shortened: as §1

soybean [19] = assay: Test A preemergence; type: in vivo, Glycine max
Procedure, shortened: as §1

wheat [20] = assay: Test A preemergence; type: in vivo, Triticum aestivum
Procedure, shortened: as §1

soybean [21] = assay: Test A postemergence; type: in vivo, Glycine max; settings: postemergence, 10 days
Procedure, shortened: as §1

pigweed, palmer [22] = assay: Test A postemergence; type: in vivo, Amaranthus palmeri; settings: postemergence, 10 days
Procedure, shortened: as §1

[23] = 125 g ai/ha, visual injury after 10 days, 0 to 100 scale, 0 is no effect, 100 is complete control
[24] = 500 g ai/ha, 0 to 100 scale (0 no effect, 100 complete control), 10 days
[25] = 125 g ai/ha, 0 to 100 scale, 0 no effect, 100 complete control
[26] = 500 g ai/ha, visual injury, 0 to 100 scale (0 no effect, 100 complete control)

Cc1ccc(-n2cnc(C(C)C)n2)cc1C(=O)N1C[C@H](C)Oc2c(C)cccc21 [Compound 99]
30: Plant response rating, Wheat (wheat [20]; [23])
80: Plant response rating, Blackgrass (blackgrass [1]; [23]) | Plant response rating, Horseweed (horseweed; [26]) | Wheat plant response rating (wheat [9]; [25]) | Kochia plant response rating (kochia [12]; [25]) | Plant response rating, Ragweed (ragweed [16]; [24]) | Plant response rating, Soybean (soybean [19]; [23]) | Plant response rating, Wheat (wheat [20]; [24])
10: Plant response rating, Corn (corn [5]; [23]) | Plant response rating, Rice (rice)
95: Plant response rating, Sedge, Umbrella (sedge, umbrella)
70: Oat, Wild plant response rating (oat, wild [3]; [25]) | Horseweed plant response rating (horseweed; [25]) | Plant response rating, Oat, Wild (oat, wild [6]; [23]) | Corn plant response rating (corn [17]; [25])
100: Plant response rating, Foxtail, Giant (foxtail, giant [2]; [23]) | Plant response rating, Foxtail, Giant (foxtail, giant [2]; [24]) | Plant response rating, Pigweed, Palmer (pigweed, palmer [4]; [23]) | Plant response rating, Pigweed, Palmer (pigweed, palmer [4]; [24]) | Plant response rating, Kochia (kochia [8]; [23]) | Plant response rating, Kochia (kochia [8]; [24]) | Plant response rating, Goosegrass (goosegrass [10]; [26]) | Plant response rating, Ryegrass, Italian (ryegrass, Italian [11]; [24]) | Galium plant response rating (galium; [25]) | Plant response rating, Galium (galium; [26]) | Plant response rating, Ryegrass, Italian (ryegrass, Italian [13]; [26]) | Plant response rating, Goosegrass (goosegrass [14]; [23]) | Plant response rating, Goosegrass (goosegrass [14]; [24]) | Plant response rating, Soybean (soybean [19]; [24]) | Soybean plant response rating (soybean [21]; [25]) | Plant response rating, Soybean (soybean [21]; [26]) | Plant response rating, Pigweed, Palmer (pigweed, palmer [22]; [26])
90: Plant response rating, Blackgrass (blackgrass [1]; [24]) | Plant response rating, Oat, Wild (oat, wild [3]; [26]) | Plant response rating, Oat, Wild (oat, wild [6]; [24]) | Plant response rating, Ragweed (ragweed [7]; [26]) | Plant response rating, Wheat (wheat [9]; [26]) | Goosegrass plant response rating (goosegrass [10]; [25]) | Plant response rating, Ryegrass, Italian (ryegrass, Italian [11]; [23]) | Plant response rating, Kochia (kochia [12]; [26]) | Foxtail, Giant plant response rating (foxtail, giant [15]; [25]) | Plant response rating, Foxtail, Giant (foxtail, giant [15]; [26]) | Plant response rating, Corn (corn [17]; [26]) | Blackgrass plant response rating (blackgrass [18]; [25]) | Plant response rating, Blackgrass (blackgrass [18]; [26]) | Pigweed, Palmer plant response rating (pigweed, palmer [22]; [25])
40: Plant response rating, Ducksalad (ducksalad) | Ragweed plant response rating (ragweed [7]; [25]) | Plant response rating, Ragweed (ragweed [16]; [23])
35: Plant response rating, Barnyardgrass (barnyardgrass)
50: Plant response rating, Corn (corn [5]; [24]) | Ryegrass, Italian plant response rating (ryegrass, Italian [13]; [25])

— patent US20260262643A1, “HERBICIDAL BENZOXAZINES” (FMC CORPORATION, priority 2022, published 2026)
